# Experimental data as given in article PMC7501296, “Rapid and direct control of target protein levels with VHL-recruiting dTAG molecules” (Nature Communications, 2020).
# Where “and” joins values, the source holds several entries; their conditions need not be identical. Identical values can stand only once.
# Legend:
# Format in all cases: cell-based
# [1] = target: T1, FKBP12^WT-Nluc (Homo sapiens, UniProt P62942); test: FKBP12WT-Nluc dual luciferase assay (293FT); settings: 293FT FKBP12WT-Nluc, 24 h
# T1 construct: expressed in transfected cells; host or cells: 293FT
# Experimental: (§1) Dual luciferase assays were performed using 293FT FKBP12^WT-Nluc and FKBP12^F36V-Nluc cells. In brief, cells were plated at 2000 cells per well in 20 µL of appropriate media in 384-well white culture plates (Corning), allowed to adhere overnight, and 100 nL of compounds were added using a Janus Workstation pin tool (PerkinElmer) for 24 h at 37 °C. To evaluate Fluc signal, plates were brought to room temperature, 20 µL of Dual-Glo Reagent (Promega) was added for 10 min and luminescence was measured on an Envision 2104 plate reader (PerkinElmer). Subsequently, 20 µL of Dual-Glo Stop & Glo Reagent (Promega) was added for 10 min and luminescence was again measured to capture Nluc signal. DMSO-normalized ratios of Nluc/Fluc signal was analyzed and plotted using GraphPad PRISM v8[6].
# [2] = target: T2, FKBP12^F36V-Nluc (Homo sapiens, UniProt P62942, F37V); test: FKBP12F36V-Nluc dual luciferase assay (293FT); settings: 293FT FKBP12F36V-Nluc, 24 h
# T2 construct: expressed in transfected cells; host or cells: 293FT
# Experimental: as §1
# [3] = system: PATU-8902 LACZ-FKBP12^F36V clone; test: Antiproliferation, PATU-8902 LACZ-FKBP12F36V clone, 3D-spheroid (CellTiter-Glo)
# Experimental: (§2) Cell viability was assayed in 2D-adherent or ultra-low adherent 3D-spheroids using CellTiter-Glo (Promega)[6],[15]. Luminescence was measured on an Envision 2104 plate reader (PerkinElmer) and Fluostar Omega Reader (BMG Labtech) and data was analyzed using GraphPad PRISM v8. Synergy assessments were performed using CellTiter-Glo (Promega) with the following modifications to the protocol described in the ref. [34]. In brief, EWS502 cells were plated at 1000 cells per well in 50 µL of appropriate media in 384-well white culture plates (Corning) allowed to adhere overnight, and 100 nL of compounds were added using a Janus Workstation pin tool (PerkinElmer) for 72 h. Cell viability was measured by addition of 10 µL of CellTiter-glo (Promega), followed by incubation for 15 minutes at room temperature. Luminescence was measured on an Envision 2104 plate reader (PerkinElmer) and data was analyzed using GraphPad PRISM v8.
# [4] = system: PATU-8902 FKBP12^F36V-KRAS^G12V; KRAS^-/- clone; test: Antiproliferation, PATU-8902 FKBP12F36V-KRASG12V; KRAS-/- clone, 3D-spheroid (CellTiter-Glo); settings: FKBP12F36V-KRASG12V, KRAS-/-, 3D-spheroid, replicate values
# Experimental: as §2
# [5] = system: PATU-8902 LACZ-FKBP12^F36V clone; test: Antiproliferation, PATU-8902 LACZ-FKBP12F36V clone, 2D-monolayer (CellTiter-Glo)
# Experimental: as §2
# [6] = system: PATU-8902 FKBP12^F36V-KRAS^G12V; KRAS^-/- clone; test: Antiproliferation, PATU-8902 FKBP12F36V-KRASG12V; KRAS-/- clone, 2D-monolayer (CellTiter-Glo)
# Experimental: as §2
# [7] = log10[compound] (M) -5.30103, single replicates
# [8] = log10[compound] (M) -5.80103, single replicates
# [9] = log10[compound] (M) -6.30103, single replicates
# [10] = log10[compound] (M) -6.80103, single replicates
# [11] = log10[compound] (M) -7.30103, single replicates
# [12] = log10[compound] (M) -7.80103, single replicates
# [13] = log10[compound] (M) -8.30103, single replicates
# [14] = log10[compound] (M) -8.80103, single replicates
# [15] = log10[compound] (M) -9.30103, single replicates
# [16] = log10[compound] (M) -9.80103, single replicates
# [17] = log10[compound] (M) -5.69897, replicate values
# [18] = log10[compound] (M) -6.19897, replicate values
# [19] = log10[compound] (M) -6.69897, replicate values
# [20] = log10[compound] (M) -7.19897, replicate values
# [21] = log10[compound] (M) -7.69897, replicate values
# [22] = log10[compound] (M) -8.19897, replicate values
# [23] = log10[compound] (M) -8.69897, replicate values
# [24] = log10[compound] (M) -9.19897, replicate values
# [25] = log10[compound] (M) -9.69897, replicate values
# [26] = log10[compound] (M) -10.199, replicate values
# T1 sequence (P62942 2-108 limits assumed): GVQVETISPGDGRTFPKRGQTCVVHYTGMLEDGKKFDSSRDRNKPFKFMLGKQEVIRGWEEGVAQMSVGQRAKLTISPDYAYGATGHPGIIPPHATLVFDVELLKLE
# T2 sequence (P62942 2-108 F37V limits assumed): as the sequence (P62942 2-108 limits assumed) above, with F36V counted along it
smiles,measurement,setting,value
CC[C@H](C(=O)N1CCCC[C@H]1C(=O)O[C@H](CCc1ccc(OC)c(OC)c1)c1ccccc1OCC(=O)NCCCCCCCCNc1ccc2c(c1)C(=O)N(C1CCC(=O)NC1=O)C2=O)c1cc(OC)c(OC)c(OC)c1 (stereo partly drawn) [dTAG-47],DMSO-normalized ratio of Nluc/Fluc signal,[1]; [7],84.1355 and 61.3325 and 70.7772 and 69.8836
same,DMSO-normalized ratio of Nluc/Fluc signal,[1]; [8],93.0264 and 83.3041 and 88.6237 and 105.071
same,DMSO-normalized ratio of Nluc/Fluc signal,[1]; [9],94.1663 and 90.3102 and 81.5579 and 90.5666
same,DMSO-normalized ratio of Nluc/Fluc signal,[1]; [10],110.721 and 121.213 and 82.3107 and 91.0391
same,DMSO-normalized ratio of Nluc/Fluc signal,[1]; [11],107.713 and 93.6392 and 128.788 and 92.5578
same,DMSO-normalized ratio of Nluc/Fluc signal,[1]; [12],103.034 and 105.226 and 82.6165 and 80.9641
same,DMSO-normalized ratio of Nluc/Fluc signal,[1]; [13],109.495 and 103.137 and 100.817 and 113.935
same,DMSO-normalized ratio of Nluc/Fluc signal,[1]; [14],108.489 and 81.746 and 104.598 and 105.548
same,DMSO-normalized ratio of Nluc/Fluc signal,[1]; [15],150.295 and 133.521 and 111.306 and 119.516
same,DMSO-normalized ratio of Nluc/Fluc signal,[1]; [16],91.0985 and 100.837 and 94.8437 and 78.0176
same,DMSO-normalized ratio of Nluc/Fluc signal,[2]; [7],9.718 and 7.82 and 6.838 and 6.452
same,DMSO-normalized ratio of Nluc/Fluc signal,[2]; [8],7.4356 and 7.1545 and 9.246 and 9.013
same,DMSO-normalized ratio of Nluc/Fluc signal,[2]; [9],8.136 and 6.155 and 6.261 and 6.581
same,DMSO-normalized ratio of Nluc/Fluc signal,[2]; [10],5.707 and 7.548 and 7.612 and 6.01
same,DMSO-normalized ratio of Nluc/Fluc signal,[2]; [11],6.03 and 9.875 and 9.62 and 12.7928
same,DMSO-normalized ratio of Nluc/Fluc signal,[2]; [12],18.7955 and 27.4949 and 18.2618 and 15.8294
same,DMSO-normalized ratio of Nluc/Fluc signal,[2]; [13],42.6816 and 38.7415 and 32.3273 and 32.9688
same,DMSO-normalized ratio of Nluc/Fluc signal,[2]; [14],36.5732 and 37.1776 and 61.6483 and 62.7104
same,DMSO-normalized ratio of Nluc/Fluc signal,[2]; [15],80.6958 and 88.3567 and 73.7011 and 76.297
same,DMSO-normalized ratio of Nluc/Fluc signal,[2]; [16],75.9613 and 95.4034 and 80.0547 and 73.0727
same,DMSO-normalized antiproliferation,[3]; [17],89.4983 and 102.295 and 92.5832 and 113.039
same,DMSO-normalized antiproliferation,[3]; [18],114.787 and 91.3098 and 99.5825 and 107.277
same,DMSO-normalized antiproliferation,[3]; [19],113.465 and 134.808 and 116.567 and 121.226
same,DMSO-normalized antiproliferation,[3]; [20],129.284 and 117.496 and 141.381 and 115.953
same,DMSO-normalized antiproliferation,[3]; [21],103.38 and 130.979 and 121.849 and 101.748
same,DMSO-normalized antiproliferation,[3]; [22],127.652 and 127.302 and 105.649 and 114.859
same,DMSO-normalized antiproliferation,[3]; [23],124.033 and 144.628 and 127.266 and 105.313
same,DMSO-normalized antiproliferation,[3]; [24],110.895 and 108.017 and 114.025 and 143
same,DMSO-normalized antiproliferation,[3]; [25],107.098 and 111.016 and 108.066 and 105.932
same,DMSO-normalized antiproliferation,[3]; [26],102.188 and 109.313 and 104.448 and 106.317
same,DMSO-normalized antiproliferation,[4]; log10[compound] (M) -5.69897,10.0402 and 10.6917 and 15.8593 and 10.4467
same,DMSO-normalized antiproliferation,[4]; log10[compound] (M) -6.19897,11.3488 and 8.236 and 4.984 and 9.032
same,DMSO-normalized antiproliferation,[4]; log10[compound] (M) -6.69897,14.7066 and 10.4355 and 16.0487 and 8.1023
same,DMSO-normalized antiproliferation,[4]; log10[compound] (M) -7.19897,11.6773 and 15.954 and 8.269 and 8.1914
same,DMSO-normalized antiproliferation,[4]; log10[compound] (M) -7.69897,15.915 and 11.6328 and 15.6143 and 14.7735
same,DMSO-normalized antiproliferation,[4]; log10[compound] (M) -8.19897,17.2515 and 18.6047 and 14.0328 and 13.4092
same,DMSO-normalized antiproliferation,[4]; log10[compound] (M) -8.69897,38.6293 and 28.3831 and 27.3251 and 20.0636
same,DMSO-normalized antiproliferation,[4]; log10[compound] (M) -9.19897,80.9673 and 68.7721 and 60.1519 and 83.6347
same,DMSO-normalized antiproliferation,[4]; log10[compound] (M) -9.69897,92.188 and 73.717 and 97.9125 and 91.7258
same,DMSO-normalized antiproliferation,[4]; log10[compound] (M) -10.199,111.244 and 86.8032 and 100.63 and 85.0157
same,DMSO-normalized antiproliferation,[5]; [17],66.3552 and 78.983 and 129.177 and 83.2821
same,DMSO-normalized antiproliferation,[5]; [18],96.6043 and 136.336 and 78.4431 and 113.952
same,DMSO-normalized antiproliferation,[5]; [19],106.502 and 122.166 and 122.162 and 152.939
same,DMSO-normalized antiproliferation,[5]; [20],97.4699 and 137.606 and 129.786 and 96.3913
same,DMSO-normalized antiproliferation,[5]; [21],105.363 and 127.754 and 134.499 and 162.317
same,DMSO-normalized antiproliferation,[5]; [22],108.061 and 166.691 and 180.246 and 124.553
same,DMSO-normalized antiproliferation,[5]; [23],122.542 and 158.966 and 101.253 and 156.902
same,DMSO-normalized antiproliferation,[5]; [24],124.955 and 178.332 and 114.428 and 108.403
same,DMSO-normalized antiproliferation,[5]; [25],90.3511 and 110.898 and 123.983 and 115.732
same,DMSO-normalized antiproliferation,[5]; [26],132.189 and 174.913 and 122.829 and 145.695
same,DMSO-normalized antiproliferation,[6]; [17],6.913 and 6.748 and 7.162 and 6.575
same,DMSO-normalized antiproliferation,[6]; [18],6.887 and 6.816 and 9.161 and 7.924
same,DMSO-normalized antiproliferation,[6]; [19],8.541 and 7.72 and 7.186 and 7.798
same,DMSO-normalized antiproliferation,[6]; [20],7.406 and 10.8399 and 10.8629 and 7.675
same,DMSO-normalized antiproliferation,[6]; [21],12.7188 and 13.025 and 10.8965 and 13.2658
same,DMSO-normalized antiproliferation,[6]; [22],32.6374 and 45.5784 and 27.329 and 36.3182
same,DMSO-normalized antiproliferation,[6]; [23],78.991 and 62.9303 and 95.6226 and 83.1029
same,DMSO-normalized antiproliferation,[6]; [24],131.499 and 101.289 and 106.245 and 113.716
same,DMSO-normalized antiproliferation,[6]; [25],70.9753 and 109.585 and 109.74 and 110.516
same,DMSO-normalized antiproliferation,[6]; [26],108.82 and 120.301 and 99.0114 and 87.8166
